According to patent US11078170B2 (Assembly Biosciences, Inc., priority 2017, dated 2021):

System: HBV viral production from HepAD38 cells
Assay: Activity of test compounds on viral production from HepAD38 cells (viral load by qPCR of HBV core sequence in supernatant)
Format: cell-based
Conditions: Hepatitis B virus, 120 h, 5 days incubation, HBV DNA in supernatant by qPCR, top concentration 10 μM, read-out: Viral Load EC50 Activity range
Method: Assay Measuring Activity of Test Compounds on Viral Production from HepAD38 Cells
HepAD38 cells grown in a T-150 flask (Corning, cat #: 430825) with Growth Medium (DMEM/F12 (1:1) (Hyclone, cat #: SH30023.02), 1×Pen/Strep (Invitrogen, cat #: 15140-122), 10% FBS (Tissue Culture Biologics, cat #: 101), 250 μg/mL G418 (Alfa Aesar, cat #: J62671), 1 μg/mL Tetracycline (Teknova, cat #: T3320)) were detached with 0.25% trypsin-EDTA (Invitrogen, cat #: 25200-056). Tetracycline-free treatment medium (15 mL DMEM/F12 (1:1) 1× Pen/step, with 2% FBS, Tet-system approved (Clontech, cat #: 631106) were then added to mix, transferred into a 50 ml conical tube (Falcon, cat #: 21008-918) and spun at 1300 rpm for 5 min. Pelleted cells were then re-suspended/washed with 50 mL of 1×DPBS (Invitrogen, cat #: 14190-136) 2 times and 50 mL treatment medium twice. HepAD38 cells were then re-suspended with 10 mL of treatment medium, syringed and counted. Wells of 96-well clear bottom TC plate (Corning, cat #: 3904) were seeded at 50,000 cells/well in 180 μL of treatment medium, and 20 μL of either 10% DMSO (Sigma, cat #: D4540) as controls or a 10× solution of test compounds in 10% DMSO in treatment media was added for a final compound concentration starting at 10 μM, and plates were incubated in 5% CO2 incubator at 37° C. for 5 days.
Subsequently viral load production was assayed by quantitative PCR (qPCR) of the HBV core sequence. PCR reaction mixture containing forward primers HBV-f 5′-CTGTGCCTTGGGTGGCTTT-3′, which is SEQ ID NO 1, (IDT DNA), Reverse primers HBV-r 5′-[…]-3′, which is SEQ ID NO 2 (IDT DNA), Fluorescent TaqMan™ Probes HBV-probe 5′-FAM/AGCTCCAAA/ZEN/[…]/3IABkFQ-3′ (IDT DNA), which is SEQ ID NO 3, 10 μL/well of PerfeCTa® qPCR ToughMix® (Quanta Biosciences, Cat #: 95114-05K), and 6 µL/well of DEPC water (Alfa Aesar, cat #: J62087) was prepared. Four μL of supernatant was added to 16 μL of the reaction mixture in a qPCR plate (Applied Biosytems, Cat #: 4309849), sealed with a film (Applied Biosystems, Cat #: 4311971), centrifuged for a few seconds, and subsequently run on an Applied Biosystems VIIA7. The PCR mixture was incubated at 45° C. for 5 min, then 95° C. for 10 min, followed by 40 cycles of 10 seconds at 95° C. and 20 seconds at 60° C. Viral load was quantified against known HBV DNA standards by using ViiA™ 7 Software. Viral load in the supernatant from wells with treated cells were compared against viral load in supernatant from DMSO control wells (≥3 per plate). Cell viability assay was performed with CellTiter-Glo Luminescent Cell Viability Assay (Promega, cat #: G7573) with modification. Mixed appropriate amount of CellTiter-Glo (CTG) 1×DPBS in a 1:1 ratio, added 100 uL of the mixture to each well followed completely removal of all supernatant in each well without touching cell surface. Incubated the plate at room temperature for 10 min on an orbital shaker, and then read the plate with a plate reader (TECAN M1000 or Envision). EC50 or CC50 values were calculated through curve-fitting of the four-parameter nonlinear-logistic-regression model (GraphPad Prism or Dotmatics). CC50 values were all >10 μM.

| Compound | EC50 |
| --- | --- |
| CN1C(C(=O)Nc2ccc(F)c(Cl)c2)CC(c2ncc(-c3cccnc3)s2)NS1(=O)=O (racemic) [HBV-CSU-175, Cis-N-(3-Chloro-4-fluorophenyl)-2-methyl-5-(5-(pyridin-3-yl)thiazol-2-yl)-1,2,6-thiadiazinane-3-carboxamide 1,1-dioxide] | < 1000 nM |
| CN1C(C(=O)Nc2ccc(F)c(Cl)c2)CC(c2ncc(-c3ccccn3)s2)NS1(=O)=O (racemic) [HBV-CSU-176, Cis-N-(3-chloro-4-fluorophenyl)-2-methyl-5-(5-(pyridin-2-yl)thiazol-2-yl)-1,2,6-thiadiazinane-3-carboxamide 1,1-dioxide] | < 1000 nM |
| CN1C(C(=O)Nc2ccc(F)c(Cl)c2)CC(c2ncc(-c3cnn(C)c3)s2)NS1(=O)=O (racemic) [HBV-CSU-177, Cis-N-(3-Chloro-4-fluorophenyl)-2-methyl-5-(5-(1-methyl-1H-pyrazol-4-yl)thiazol-2-yl)-1,2,6-thiadiazinane-3-carboxamide 1,1-dioxide] | < 1000 nM |
| CN1C(C(=O)Nc2ccc(F)c(Cl)c2)CC(c2ncc(-c3cccs3)s2)NS1(=O)=O (racemic) [HBV-CSU-178, Cis-N-(3-Chloro-4-fluorophenyl)-2-methyl-5-(5-(thiophen-2-yl)thiazol-2-yl)-1,2,6-thiadiazinane-3-carboxamide 1,1-dioxide] | < 1000 nM |
| CN(C)CCOc1ccc(C2CC(C(=O)Nc3ccc(F)c(Cl)c3)N(C)S(=O)(=O)N2)s1 (racemic) [HBV-CSU-188, Cis-N-(3-chloro-4-fluorophenyl)-5-(5-(2-(dimethylamino)ethoxy)thiophen-2-yl)-2-methyl-1,2,6-thiadiazinane-3-carboxamide 1,1-dioxide] | < 1000 nM |
| CN(C)CCCOc1ccc(C2CC(C(=O)Nc3ccc(F)c(Cl)c3)N(C)S(=O)(=O)N2)cc1 (racemic) [HBV-CSU-208, Cis-N-(3-chloro-4-fluorophenyl)-5-(4-(3-(dimethylamino)propoxy)phenyl)-2-methyl-1,2,6-thiadiazinane-3-carboxamide 1,1-dioxide] | < 1000 nM |
| COCCN1C(C(=O)Nc2ccc(F)c(Cl)c2)CC(c2ccc(F)cc2)NS1(=O)=O (racemic) [HBV-CSU-210, Cis-N-(3-Chloro-4-fluorophenyl)-5-(4-fluorophenyl)-2-(2-methoxyethyl)-1,2,6-thiadiazinane-3-carboxamide 1,1-dioxide] | < 1000 nM |
| CN1C(C(=O)Nc2ccc(F)c(Br)c2)CC(c2ccc(F)cc2)NS1(=O)=O (racemic) [HBV-CSU-211, Cis-N-(3-Bromo-4-fluorophenyl)-5-(4-fluorophenyl)-2-methyl-1,2,6-thiadiazinane-3-carboxamide 1,1-dioxide] | < 1000 nM |
| CN1C(C(=O)Nc2cc(F)c(F)c(F)c2)CC(c2ccc(F)cc2)NS1(=O)=O (racemic) [HBV-CSU-212, Cis-5-(4-Fluorophenyl)-2-methyl-N-(3,4,5-trifluorophenyl)-1,2,6-thiadiazinane-3-carboxamide 1,1-dioxide] | < 1000 nM |
| CN1C(C(=O)Nc2ccc(F)c(Cl)c2)CC(c2ccc(C#N)cc2)NS1(=O)=O (racemic) [HBV-CSU-213, Cis-N-(3-chloro-4-fluorophenyl)-5-(4-cyanophenyl)-2-methyl-1,2,6-thiadiazinane-3-carboxamide 1,1-dioxide] | < 1000 nM |
| CN1C(C(=O)Nc2ccc(F)c(Cl)c2)CC(c2ccc(C(N)=O)cc2)NS1(=O)=O (racemic) [HBV-CSU-214, Cis-5-(4-Carbamoylphenyl)-N-(3-chloro-4-fluorophenyl)-2-methyl-1,2,6-thiadiazinane-3-carboxamide 1,1-dioxide] | < 1000 nM |
| CN1C(C(=O)Nc2ccc(F)c(Cl)c2)CC(c2ccc(OCC(=O)O)cc2)NS1(=O)=O (racemic) [HBV-CSU-216, Cis-2-(4-(5-((3-Chloro-4-fluorophenyl)carbamoyl)-6-methyl-1,1-dioxido-1,2,6-thiadiazinan-3-yl)phenoxy)acetic acid] | > 5000 nM |
| CN1C(C(=O)Nc2ccc(F)c(Cl)c2)CC(c2ccc(C(F)(F)F)cc2)NS1(=O)=O (racemic) [HBV-CSU-217, Cis-N-(3-Chloro-4-fluorophenyl)-2-methyl-5-(4-(trifluoromethyl)phenyl)-1,2,6-thiadiazinane-3-carboxamide 1,1-dioxide] | 1000 to 5000 nM |
| CN1C(C(=O)Nc2ccc(F)c(Cl)c2)CC(c2ccc(C(=O)O)cc2)NS1(=O)=O (racemic) [HBV-CSU-218, Cis-4-(5-((3-Chloro-4-fluorophenyl)carbamoyl)-6-methyl-1,1-dioxido-1,2,6-thiadiazinan-3-yl)benzoic acid] | 1000 to 5000 nM |
| CN1C(C(=O)Nc2ccc(F)c(Cl)c2)CC(c2ccc(C(F)(F)F)s2)NS1(=O)=O (racemic) [HBV-CSU-219, Cis-N-(3-Chloro-4-fluorophenyl)-2-methyl-5-(5-(trifluoromethyl)thiophen-2-yl)-1,2,6-thiadiazinane-3-carboxamide 1,1-dioxide] | < 1000 nM |
| CN1C(C(=O)Nc2ccc(F)c(Cl)c2)CC(c2ccc(C#N)c(F)c2)NS1(=O)=O (racemic) [HBV-CSU-221, Cis-N-(3-chloro-4-fluorophenyl)-5-(4-cyano-3-fluorophenyl)-2-methyl-1,2,6-thiadiazinane-3-carboxamide 1,1-dioxide] | < 1000 nM |
| CN1C(C(=O)Nc2ccc(F)c(Cl)c2)CC(C2CCCC2)NS1(=O)=O (racemic) [HBV-CSU-222, Cis-N-(3-chloro-4-fluorophenyl)-5-cyclopentyl-2-methyl-1,2,6-thiadiazinane-3-carboxamide 1,1-dioxide] | < 1000 nM |
| Cc1ncc(C2CC(C(=O)Nc3ccc(F)c(Cl)c3)N(C)S(=O)(=O)N2)s1 (racemic) [HBV-CSU-224, Cis-N-(3-Chloro-4-fluorophenyl)-2-methyl-5-(2-methylthiazol-5-yl)-1,2,6-thiadiazinane-3-carboxamide 1,1-dioxide] | < 1000 nM |
| CN1C(C(=O)Nc2ccc(F)c(Cl)c2)CC(c2ccc(F)c(F)c2)NS1(=O)=O (racemic) [HBV-CSU-230, Cis-N-(3-Chloro-4-fluorophenyl)-5-(3,4-difluorophenyl)-2-methyl-1,2,6-thiadiazinane-3-carboxamide 1,1-dioxide] | < 1000 nM |
| CN1C(C(=O)Nc2ccc(F)c(Cl)c2)CC(c2cccc(F)c2)NS1(=O)=O (racemic) [HBV-CSU-231, Cis-N-(3-Chloro-4-fluorophenyl)-5-(3-fluorophenyl)-2-methyl-1,2,6-thiadiazinane-3-carboxamide 1,1-dioxide] | < 1000 nM |
| CN1C(C(=O)Nc2ccc(F)c(Cl)c2)CC(c2ccc(OC(F)(F)F)cc2)NS1(=O)=O (racemic) [HBV-CSU-232, Cis-N-(3-Chloro-4-fluorophenyl)-2-methyl-5-(4-(trifluoromethoxy)phenyl)-1,2,6-thiadiazinane-3-carboxamide 1,1-dioxide] | < 1000 nM |
| CN1C(C(=O)Nc2ccc(F)c(Cl)c2)CC(c2ccc(-c3ccc(F)cn3)s2)NS1(=O)=O (racemic) [HBV-CSU-242, Cis-N-(3-chloro-4-fluorophenyl)-5-(5-(5-fluoropyridin-2-yl)thiophen-2-yl)-2-methyl-1,2,6-thiadiazinane-3-carboxamide 1,1-dioxide] | < 1000 nM |
| CN1C(C(=O)Nc2ccc(F)c(Cl)c2)CC(c2cc(-c3ccc(F)cn3)cs2)NS1(=O)=O (racemic) [HBV-CSU-243, Cis-N-(3-chloro-4-fluorophenyl)-5-(4-(5-fluoropyridin-2-yl)thiophen-2-yl)-2-methyl-1,2,6-thiadiazinane-3-carboxamide 1,1-dioxide] | < 1000 nM |
